Assay results: patent US9233171B2, “Method of treatment of tumors that are resistant to EGFR antibody therapies by EGFR antibody cytotoxic agent conjugate” (ImmunoGen, Inc., priority 2011, dated 2016)
Where two headings read alike, the source gives them in different places.

Legend:
[1] = test system: H226 cell line; conditions: H226, Yauch et al. 2005; cited from earlier work
[2] = test system: H2228 cells; assay: cytotoxic activity, H2228; assay type: cell-based; conditions: Homo sapiens, NCI-H2228
Description: (§1) The cytotoxic assay was performed as follows.
EML4-ALK gene translocation leads to a constitutive activation of ALK kinase and has been identified as a driver mutation in ˜5% of NSCLC adenocarcinoma (reviewed in Castro-Carpeno J. et al., Clin Transl Oncol. 13:774-779 (2011)). […] Unfortunately, ˜40% of EML4-ALK+ tumors are resistant to crizotinib. Additionally, tumors that are sensitive to crizotinib can rapidly develop resistance to the drug (Castro-Carpeno J. et al., Clin Transl Oncol. 13:774-779 (2011)).

[3] = test system: HCC827-ER-E4 cell line; assay: Western blot after 16 hour erlotinib treatment, HCC827-ER-E4; assay type: cell-based; conditions: HCC827-ER-E4, erlotinib 16 hours
[4] = test system: HCC827 parental cell line; assay: Western blot after 16 hour erlotinib treatment, HCC827 parental; assay type: cell-based; conditions: erlotinib 16 hours
[5] = test system: Parental HCC827 (Aichi) cells; assay: in vitro cytotoxicity assay, parental HCC827 (Aichi); assay type: cell-based
Description: as §1
(§2) The HCC827 ER cell line contains high MET gene copy number and the HCC827 EPR cell line carries T790M EGFR mutation (Suda K. et al. Clin Cancer Res 16: 5489 (2010)). These cell lines reflect the two major mechanisms of resistance against EGFR tyrosine kinase inhibitors (Sequist L. et al. Sci Transl Med 3: 75ra26 (2011)).

[6] = test system: HCC827-ER cell line; assay: in vitro cytotoxicity assay, HCC827-ER
[7] = test system: HCC827-ER-E4 cell line; assay: in vitro cytotoxicity assay, HCC827-ER-E4
[8] = test system: H2228 cells; conditions: H2228, Koivunen et al. 2008; cited from earlier work
[9] = test system: HCC827-ER cell line
[10] = test system: HCC827 ER (Aichi) cells; assay: in vitro cytotoxicity assay, HCC827 ER (Aichi); assay type: cell-based
Description: as §1, §2

[11] = test system: HCC827 cell line; assay: in vitro cytotoxic assay, HCC827 in absence or presence of HGF
[12] = test system: HCC827 EPR (Aichi) cells; assay: in vitro cytotoxicity assay, HCC827 EPR (Aichi); assay type: cell-based
Description: as §1, §2

[13] = test system: Detroit 562; assay: in vitro cytotoxicity assay, Detroit 562; assay type: cell-based; conditions: Detroit562
[14] = test system: NCI-H1975 cell line; assay: in vitro cytotoxic assay (WST-8), NCI-H1975; assay type: cell-based
Description: NCI-H1975 cell line is a NSCLC adenocarcinoma cell line that carries both sensitizing (L858R) and resistant (T790M) EGFR mutations (Cosmic database, Wellcome Trust Sanger Institute), thus it closely mimics the EGFR kinase inhibitor resistant tumors found in the clinical setting.
as §1

[15] = target: EGFR on parental HCC827 (Aichi) NSCLC cells (exon 19 deletion EGFR mutation) (UniProt P00533 25-1210); assay: cell-based or functional assay
[16] = test system: H226 cell line; assay: in vitro cytotoxic assay, H226; assay type: cell-based
Description: as §1
NSCLC cell lines with mesenchymal histology are generally more resistant to gefitinib than those with epithelial histology (Yauch R L. et al. Clin Cancer Res 11: 8686 (2005)). […] H226 cell line is a squamous cell carcinoma with mesenchymal histology.

[17] = test system: HCC827-ER-E4 cell line

## COc1cc2ncnc(Nc3ccc(F)c(Cl)c3)c2cc1OCCCN1CCOCC1 [gefitinib]
[1]
  resistance of cell line: resistant

## C[C@@H](Oc1cc(-c2cnn(C3CCNCC3)c2)cnc1N)c1c(Cl)ccc(F)c1Cl [crizotinib]
[2]; H2228, EML4-ALK translocation, read-out: EC50
  EC50: 3.82 µM

## C#Cc1cccc(Nc2ncnc3cc(OCCOC)c(OCCOC)cc23)c1 [erlotinib]
[3]
  AKT level: not changed
  EGFR phosphorylation: completely inhibited
  ERK1/2 phosphorylation: less impact
  phospho AKT (pAKT) level: little change
[4]
  AKT level: reduced
  AKT phosphorylation: inhibited
  EGFR phosphorylation: completely inhibited
  ERK1/2 phosphorylation: inhibited
[2]
  EC50: 26.1 µM
[5]
  sensitivity: highly sensitive
[6]
  cytotoxic effect: highly resistant
[7]
  cytotoxic effect: maintained erlotinib resistance

## COc1cc(N2CCC(N3CCN(C)CC3)CC2)ccc1Nc1ncc(Cl)c(Nc2ccccc2S(=O)(=O)C(C)C)n1 [TAE684]
[8]
  resistance of cell line: resistant

B1: huEGFR-7R antibody (antibody, V domains shown)
VH: QVQLVQSGAEVAKPGASVKLSCKASGYTFTSYWMQWVKQRPGQGLECIGTIYPGDGDTTYTQKFQGKATLTADKSSSTAYMQLSSLRSEDSAVYYCARYDAPGYAMDYWGQGTLVTVSS
VL: DIQMTQSPSSLSASVGDRVTITCRASQDINNYLAWYQHKPGKGPKLLIHYTSTLHPGIPSRFSGSGSGRDYSFSISSLEPEDIATYYCLQYDNLLYTFGQGTKLEIKR
[9]
  cytotoxic effect: little effect
[10]
  sensitivity / resistance: highly resistant
[11]; HCC827 + 50 ng/mL HGF
  cell growth inhibition: further reduced
[11]; HCC827, absence of HGF
  cell growth inhibition: marginal activities
[12]
  sensitivity / resistance: highly resistant
[13]
  effect on tumor cell growth: had no effect
[14]
  cytotoxic effect: did not have any effect
[15]
  EC50, in vitro cytotoxicity (WST-8 cell viability) on parental HCC827 (Aichi) cells: 0.000426 µM
[5]
  sensitivity: highly sensitive
[16]
  effect on tumor cell growth: neither the huEGFR-7R antibody nor cetuximab had effect
[17]
  cytotoxic effect: little effect
